# Measurements taken from US7927785B2, “Methods for in vitro expansion of hematopoietic stem cells” (The Board of Trustees of the University of Illinois, priority 2002, dated 2011).
# Test system: CpG residue located at −256 position within the γ-globin promoter region
# Assay: COBRA (Combined Bisulfite Restriction Analysis) of DNA methylation
# Format: cell-based, human
# Protocol: DNA was prepared from cultured CD34^+ cells (0.5-2.0×10^6 total cells) using the QIAamp DNA blood Minikit (Qiagen, Valencia, Calif.) according to manufacturer's instructions. The purified DNA was digested with 10-20 units Hind III at 37° C. for one hour followed by two extractions with a 50/50/1 mixture of phenol/chloroform/isoamyl:alcohol saturated with 0.5 M Tris, pH 7.5. The digested DNA was precipitated overnight at −20° C. in the presence of 2.5 volumes ethanol and 0.3 M sodium acetate, pH 7.0. DNA was harvested by centrifugation, washed 2× in 70% ethanol and dissolved in H2O.
# DNA Denaturation was performed by incubation of 1-2 μg DNA in 10-20 μl 0.3 M NaOH at 37° C. for 20 minutes. Bisulfite modification was performed by the addition of 200 μl bisulfite solution (2.5 M sodium metabisulfite, 100 mM hydroquinone) prepared according to the method as described (Clark et al., Nucleic Acid Res. 22:2990-2997, 1994; Raizis et al., Anal. Biocem; 226:161-166, 1995; Xiong et al., Nucleic Acid Res., 2532-2534, 1997), followed by incubation for 4 hours at 50° C. […]
# For COBRA (Combined Bisulfite Restriction Analysis), a 201 bp fragment of the γ-globin promoter region was amplified by two rounds of PCR using doubly nested primers. […] Digested products were analyzed by polyacrylamide gel electrophoresis (5% gel), visualized by staining with ethidium bromide, and quantified by densitometry.
smiles,measurement,setting,value
"Nc1ncn([C@H]2C[C@H](O)[C@@H](CO)O2)c(=O)n1 [5azaD, 5-aza2′deoxycitidine]",% Hypomethylation,"5 days of culture, 5azaD 10−6M, TSA 5 ng/ml, approximated",68%
same,"% Methylation (COBRA, −256 position of γ-globin promoter)","cultured 5 days with cytokines, densitometry",32%
